Laboratory results published in patent US20220289685A1, “ANTIMALARIAL HEXAHYDROPYRIMIDINE ANALOGUES” (UCB BIOPHARMA SRL, priority 2019, published 2022).
Structures can show the parent of a compound that is named as a salt.

System: Plasmodium falciparum 3D7 strain
Experiment: P. falciparum 3D7 asexual blood stage assay (SYBR green readout)
Assay type: cell-based
Conditions: Plasmodium falciparum, 3D7, Erythrocyte, 72 h
Procedure: Asexual Blood Stage Assay
The assay used to measure the effect of test compounds on a bloodstream stage of Plasmodium falciparum: 3D7 strain employs SYBR green as the readout. This is a dye that binds to double stranded deoxyribonucleic acid (DNA) with a resulting increase in fluorescence, allowing detection of P. falciparum DNA in infected erythrocytes, and thereby providing a measure of parasite growth and propagation.
P. falciparum Culture Maintenance
Erythrocytes (A+ blood) were prepared for both parasite culture and assay by washing 4 times with incomplete media (15.9 g RPMI 1640 (25 mM HEPES, L-glutamine), 1 g NaHCO3, 2 g glucose, 400 μL gentacin (500 mg/mL), 2 mL hypoxanthine solution (13.6 g/L in 0.1M NaOH pH 7.3) in 1 litre of media). The cells were centrifuged at 1800 g for 5 minutes, before decanting the supernatant and re-suspending in fresh incomplete media. On the final wash, the cells were re-suspended in complete media (incomplete media with 5 g/L AlbumaxII), and centrifuged at 1800 g for 3 minutes. This cell sediment was treated as 100% haematocrit.
P. falciparum 3D7 was cultured in erythrocytes at 5% haematocrit in complete media at 37° C. (1% O2, 3% CO2, balance N2). Cultures were split on a weekly basis to achieve a 1% parasitaemia in erythrocites at 5% haematocrit in fresh media. Culture media is replaced by fresh media every other day (2 times during the week).
On day 1, test compounds were added to assay plates using Echo dispensing technology ([…] and 20 points titration). 50 nL of each compound dilution was added to 50 μL of culture (5% haematocrit, 0.5% parasitaemia) and incubated for 72 h at 37° C. (1% O2, 3% CO2, balance N2). Final concentrations of test compounds ranged from 50,000 nM to 15 nM, in […].
On day 4, 10 μL SYBR green (Invitrogen S7563 supplied as 10,000× concentrate in DMSO) pre-diluted to 3× concentrate with Lysis buffer (20 mM Tris pH 7.9, 5% EDTA, 0.16% w/v, 1.6% TX100 v/v) was added to the cultures and incubated in the dark, overnight, at room temperature.
On day 5, fluorescent signal was measured using a BioTek plate reader (excitation 485 nm, emission 528 nm). All data were processed using IDBS ActivityBase. Raw data were converted into percent inhibition through linear regression by setting the high inhibition control (mefloquine) as 100% and the no inhibition control (DMSO) as 0%. Quality control criteria for passing plates were as follows: Z′>0.5, S:B>3, 30% CV(no inhibition control)<15. The formula used to calculate Z′ is: […]
All EC50 curve fitting was undertaken using the following bi-phasic two site dose response using XLfit model 300 (IDBS):
where A=100 minus the top of the upper curve 1 and the bottom of lower curve; B=Hill slope; log(C)=IC50 concentration at lower site; log(D)=IC50 concentration at upper site; x=inhibitor concentration; and y=% inhibition.

Row | Structure (SMILES) | IC50 [nM]
1 | C[C@@H]1C[C@H](N2C(=N)N[C@](C)(c3cccc(NC(=O)c4cc(C#N)ccc4Cl)c3Cl)CC2=O)CCO1 (relative stereo) [Example 98, 2-Chloro-N-(2-chloro-3-{(4S)-2-imino-4-methyl-1-[(2R*,4R*)-2-methyltetrahydropyran-4-yl]-6-oxo-hexahydropyrimidin-4-yl}phenyl)-5-cyanobenzamide hydrochloride] | 45
2 | C[C@@]1(c2cccc(NC(=O)c3cccc(C#N)c3)c2Cl)CC(=O)N(C2CCC(F)(F)CC2)C(=N)N1 [Example 23, N-{2-Chloro-3-[(4S)-1-(4,4-difluorocyclohexyl)-2-imino-4-methyl-6-oxohexahydropyrimidin-4-yl]phenyl}-3-cyanobenzamide hydrochloride] | 68
3 | COc1cncc(C(=O)Nc2cccc([C@]3(C)CC(=O)N([C@@H]4CCO[C@H](C)C4)C(=N)N3)c2Cl)n1 (relative stereo) [Example 68, N-(2-Chloro-3-{(4S)-2-imino-4-methyl-1-[(2R*,4R*)-2-methyl-tetrahydropyran-4-yl]-6-oxo-hexahydropyrimidin-4-yl}phenyl)-6-methoxypyrazine-2-carboxamide hydrochloride] | 11
4 | C[C@@H]1C[C@H](N2C(=N)N[C@](C)(c3cccc(NC(=O)c4cnccc4F)c3Cl)CC2=O)CCO1 (relative stereo) [Example 96, N-(2-Chloro-3-{(4S)-2-imino-4-methyl-1-[(2R*,4R*)-2-methyl-tetrahydropyran-4-yl]-6-oxo-hexahydropyrimidin-4-yl}phenyl)-4-fluoropyridine-3-carboxamide hydrochloride] | 565
5 | C[C@@H]1C[C@H](N2C(=N)N[C@](C)(c3cccc(NC(=O)c4cncc(N(C)C)n4)c3Cl)CC2=O)CCO1 (relative stereo) [Example 91, N-(2-Chloro-3-{(4S)-2-imino-4-methyl-1-[(2R*,4R*)-2-methyl-tetrahydropyran-4-yl]-6-oxo-hexahydropyrimidin-4-yl]phenyl)-6-(dimethylamino)pyrazine-2-carboxamide hydrochloride] | 116
6 | C[C@@H]1C[C@H](N2C(=N)N[C@](C)(c3cccc(NC(=O)c4ccc(Cl)cn4)c3Cl)CC2=O)CCO1 (relative stereo) [Example 63, 5-Chloro-N-(2-chloro-3-{(4S)-2-imino-4-methyl-1-[(2R*,4R*)-2-methyltetrahydropyran-4-yl]-6-oxo-hexahydropyrimidin-4-yl]phenyl)-pyridine-2-carboxamide hydrochloride] | 41
7 | C[C@@H]1C[C@H](N2C(=N)N[C@](C)(c3cccc(NC(=O)c4ccc(OCC(F)(F)F)nc4)c3Cl)CC2=O)CCO1 (relative stereo) [Example 58, N-(2-Chloro-3-{(4S)-2-imino-4-methyl-1-[(2R*,4R*)-2-methyl-tetrahydropyran-4-yl]-6-oxo-hexahydropyrimidin-4-yl]phenyl)-6-(2,2,2-trifluoroethoxy)pyridine-3-carboxamide hydrochloride] | 438
8 | C[C@@H]1C[C@H](N2C(=N)N[C@](C)(c3cccc(NC(=O)c4cnc5cccnc5c4)c3Cl)CC2=O)CCO1 (relative stereo) [Example 52, N-(2-Chloro-3-{(4S)-2-imino-4-methyl-1-[(2R*,4R*)-2-methyl-tetrahydropyran-4-yl]-6-oxo-hexahydropyrimidin-4-yl}phenyl)-1,5-naphthyridine-3-carboxamide trifluoroacetic acid salt] | 115
9 | C[C@@H]1C[C@H](N2C(=N)N[C@](C)(c3cccc(NC(=O)c4ccc(C#N)o4)c3Cl)CC2=O)CCO1 (relative stereo) [Example 115, N-(2-Chloro-3-{(4S)-2-imino-4-methyl-1-[(2R*,4R*)-2-methyl-tetrahydropyran-4-yl]-6-oxo-hexahydropyrimidin-4-yl]phenyl)-5-cyanofuran-2-carboxamide trifluoroacetic acid salt] | 18
10 | Cc1nonc1C(=O)Nc1cccc([C@]2(C)CC(=O)N([C@@H]3CCO[C@H](C)C3)C(=N)N2)c1Cl (relative stereo) [Example 17, N-(2-Chloro-3-{(4S)-2-imino-4-methyl-1-[(2R*,4R*)-2-methyl-tetrahydropyran-4-yl]-6-oxo-hexahydropyrimidin-4-yl}phenyl)-4-methyl-1,2,5-oxadiazole-3-carboxamide hydrochloride] | 12
11 | C[C@@H]1C[C@H](N2C(=N)N[C@](C)(c3cccc(NC(=O)c4cccnn4)c3Cl)CC2=O)CCO1 (relative stereo) [Example 19, N-(2-Chloro-3-{(4S)-2-imino-4-methyl-1-[(2R*,4R*)-2-methyl-tetrahydropyran-4-yl]-6-oxo-hexahydropyrimidin-4-yl]phenyl)-pyridazine-3-carboxamide hydrochloride] | 31
12 | C[C@@H]1C[C@H](N2C(=N)N[C@](C)(c3cccc(NC(=O)c4cccc(C#N)n4)c3Cl)CC2=O)CCO1 (relative stereo) [Example 72, N-(2-Chloro-3-{(4S)-2-imino-4-methyl-1-[(2R*,4R*)-2-methyl-tetrahydropyran-4-yl]-6-oxo-hexahydropyrimidin-4-yl}phenyl)-6-cyanopyridine-2-carboxamide hydrochloride] | 14
13 | C[C@@H]1C[C@H](N2C(=N)N[C@](C)(c3cccc(NC(=O)c4ccccn4)c3Cl)CC2=O)CCO1 (relative stereo) [Example 6, N-(2-Chloro-3-{(4S)-2-imino-4-methyl-1-[(2R*,4R*)-2-methyl-tetrahydropyran-4-yl]-6-oxo-hexahydropyrimidin-4-yl}phenyl)-pyridine-2-carboxamide hydrochloride] | 33
14 | C[C@@H]1C[C@H](N2C(=N)N[C@](C)(c3cccc(NC(=O)c4cnc5ccccc5c4)c3Cl)CC2=O)CCO1 (relative stereo) [Example 33, N-(2-Chloro-3-{(4S)-2-imino-4-methyl-1-[(2R*,4R*)-2-methyl-tetrahydropyran-4-yl]-6-oxo-hexahydropyrimidin-4-yl}phenyl)-quinoline-3-carboxamide trifluoroacetic acid salt] | 54
15 | C[C@@H]1C[C@H](N2C(=N)NC(C)(c3cccc(NC(=O)c4ccc(Cl)cc4F)c3Cl)CC2=O)CCO1 (relative stereo) [Example 67, 4-Chloro-N-(2-chloro-3-{(4S)-2-imino-4-methyl-1-[(2R*,4R*)-2-methyltetrahydropyran-4-yl]-6-oxo-hexahydropyrimidin-4-yl}phenyl)-2-fluorobenzamide hydrochloride] | 26
16 | C[C@@H]1C[C@H](N2C(=N)N[C@](C)(c3cccc(NC(=O)c4cc(C#N)ccc4F)c3Cl)CC2=O)CCO1 (relative stereo) [Example 76, N-(2-Chloro-3-{(4S)-2-imino-4-methyl-1-{(2R*,4R*)-2-methyl-tetrahydropyran-4-yl]-6-oxo-hexahydropyrimidin-4-yl}phenyl)-5-cyano-2-fluorobenzamide hydrochloride] | 11
17 | C[C@@H]1C[C@H](N2C(=N)N[C@](C)(c3cccc(NC(=O)c4cccc(C#N)c4)c3Cl)CC2=O)CCC1(F)F (relative stereo) [Example 25, N-(2-Chloro-3-{(4S)-1-[(1R*,3R*)-4,4-difluoro-3-methylcyclohexyl]-2-imino-4-methyl-6-oxohexahydro-pyrimidin-4-yl]phenyl)-3-cyano-benzamide trifluoroacetic acid salt] | 87
